Experimental data published in ChEMBL document CHEMBL1137331 (J Med Chem, 2006).

Key:
T-cell = experiment: Inhibition of anti CD3/anti CD28-induced T cell proliferation; assay type: functional, cell-based; details: Homo sapiens
[1] = target: Tyrosine-protein kinase Lck (Homo sapiens, UniProt P06239)
Description: Inhibition of human Lck in presence of ATP

[2] = target: Proto-oncogene tyrosine-protein kinase Src (Homo sapiens, UniProt P12931); experiment: Inhibition of Src in presence of ATP
Mus musculus [3] = experiment: Inhibition of anti CD3/anti CD28-induced IL2 production in po dosed BALB/c mouse; assay type: functional
[4] = target: Tyrosine-protein kinase Fgr (Homo sapiens, UniProt P09769); experiment: Inhibition of Fgr
PBMC = experiment: Inhibition of LPS-induced TNFalpha production in human PBMC; assay type: functional, cell-based
Rattus norvegicus = experiment: Volume of distribution in rat at 10 mg/kg, iv and po; assay type: ADME, organism-based; parameters: dose 10 mg/kg, route oral; details: in vivo
[5] = target: Tyrosine-protein kinase Yes (Homo sapiens, UniProt P07947); experiment: Inhibition of Yes
[6] = target: Tyrosine-protein kinase Lyn (Homo sapiens, UniProt P07948); experiment: Inhibition of Lyn
[7] = target: Receptor tyrosine-protein kinase erbB-2 (Homo sapiens, UniProt P04626); experiment: Inhibition of Her2
[8] = target: Fibroblast growth factor receptor 1 (Homo sapiens, UniProt P11362); experiment: Inhibition of FGFR1
[9] = target: Proto-oncogene tyrosine-protein kinase LCK (Mus musculus, UniProt P06240)
Description: Inhibition of murine Lck in presence of ATP

Mus musculus [10] = experiment: Inhibition of LPS-induced TNFalpha production in C57BL/6 mouse at 60 mg/kg, po; details: C57BL/6, po
[11] = target: Proto-oncogene tyrosine-protein kinase LCK (Mus musculus) (UniProt P06240); details: 50 uM
Sequence of Proto-oncogene tyrosine-protein kinase LCK (Mus musculus) (P06240 2-509 limits assumed): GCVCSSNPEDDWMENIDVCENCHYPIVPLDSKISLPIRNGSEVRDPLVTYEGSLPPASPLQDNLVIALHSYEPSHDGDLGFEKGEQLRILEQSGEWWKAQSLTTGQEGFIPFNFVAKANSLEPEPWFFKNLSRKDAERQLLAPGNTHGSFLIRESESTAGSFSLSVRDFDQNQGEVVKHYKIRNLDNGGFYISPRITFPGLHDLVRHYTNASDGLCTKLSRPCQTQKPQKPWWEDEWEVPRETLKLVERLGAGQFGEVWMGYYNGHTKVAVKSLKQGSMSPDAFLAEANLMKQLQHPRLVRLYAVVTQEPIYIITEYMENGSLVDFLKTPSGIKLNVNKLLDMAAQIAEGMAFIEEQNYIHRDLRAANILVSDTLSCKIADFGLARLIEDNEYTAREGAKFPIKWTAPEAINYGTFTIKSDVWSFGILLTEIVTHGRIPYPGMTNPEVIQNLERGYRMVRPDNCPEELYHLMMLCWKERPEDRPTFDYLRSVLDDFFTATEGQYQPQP
Description: Inhibition of murine Lck at 50 uM

Sequence of Proto-oncogene tyrosine-protein kinase LCK (P06240 whole entry): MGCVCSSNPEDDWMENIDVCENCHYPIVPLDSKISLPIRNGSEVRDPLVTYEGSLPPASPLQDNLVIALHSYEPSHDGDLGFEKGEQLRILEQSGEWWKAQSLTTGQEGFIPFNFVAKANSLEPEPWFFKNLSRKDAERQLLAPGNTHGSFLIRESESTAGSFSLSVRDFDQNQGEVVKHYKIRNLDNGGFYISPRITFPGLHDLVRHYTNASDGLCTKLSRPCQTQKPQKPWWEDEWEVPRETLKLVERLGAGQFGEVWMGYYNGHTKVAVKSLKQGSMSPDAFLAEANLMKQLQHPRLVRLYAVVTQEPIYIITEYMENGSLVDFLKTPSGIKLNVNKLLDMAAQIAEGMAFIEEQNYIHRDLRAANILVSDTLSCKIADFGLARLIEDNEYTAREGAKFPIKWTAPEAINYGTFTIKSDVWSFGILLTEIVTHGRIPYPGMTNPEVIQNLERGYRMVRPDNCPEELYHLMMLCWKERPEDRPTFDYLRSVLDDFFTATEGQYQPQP
Sequence of Tyrosine-protein kinase Lck (P06239 whole entry): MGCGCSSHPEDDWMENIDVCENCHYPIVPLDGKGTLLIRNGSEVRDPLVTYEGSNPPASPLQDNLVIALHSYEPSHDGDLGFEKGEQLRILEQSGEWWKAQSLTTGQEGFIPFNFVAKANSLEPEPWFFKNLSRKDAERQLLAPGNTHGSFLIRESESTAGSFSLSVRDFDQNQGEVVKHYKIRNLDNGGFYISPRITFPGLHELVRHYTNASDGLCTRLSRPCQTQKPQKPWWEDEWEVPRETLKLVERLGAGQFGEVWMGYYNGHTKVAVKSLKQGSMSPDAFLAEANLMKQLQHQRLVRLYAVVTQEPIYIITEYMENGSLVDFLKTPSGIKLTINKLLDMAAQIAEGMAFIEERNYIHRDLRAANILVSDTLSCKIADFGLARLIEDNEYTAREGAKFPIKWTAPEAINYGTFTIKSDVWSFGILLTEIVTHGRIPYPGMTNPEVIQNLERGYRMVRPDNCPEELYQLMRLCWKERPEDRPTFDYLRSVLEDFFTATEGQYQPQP
Sequence of Tyrosine-protein kinase Lyn (P07948 whole entry): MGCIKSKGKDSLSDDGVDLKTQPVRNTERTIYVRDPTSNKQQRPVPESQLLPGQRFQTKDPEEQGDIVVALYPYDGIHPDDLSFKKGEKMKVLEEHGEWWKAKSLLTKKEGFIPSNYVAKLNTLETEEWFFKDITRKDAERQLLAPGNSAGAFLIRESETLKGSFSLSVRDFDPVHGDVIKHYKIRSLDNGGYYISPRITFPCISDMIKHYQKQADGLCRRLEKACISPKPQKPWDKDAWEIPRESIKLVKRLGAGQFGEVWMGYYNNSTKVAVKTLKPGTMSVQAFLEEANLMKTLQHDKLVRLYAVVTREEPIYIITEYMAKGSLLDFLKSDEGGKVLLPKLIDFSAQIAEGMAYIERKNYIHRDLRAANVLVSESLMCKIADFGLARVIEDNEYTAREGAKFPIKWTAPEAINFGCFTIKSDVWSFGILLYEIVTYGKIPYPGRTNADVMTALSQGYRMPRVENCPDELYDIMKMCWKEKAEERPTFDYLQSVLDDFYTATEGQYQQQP
Sequence of Tyrosine-protein kinase Yes (P07947 whole entry): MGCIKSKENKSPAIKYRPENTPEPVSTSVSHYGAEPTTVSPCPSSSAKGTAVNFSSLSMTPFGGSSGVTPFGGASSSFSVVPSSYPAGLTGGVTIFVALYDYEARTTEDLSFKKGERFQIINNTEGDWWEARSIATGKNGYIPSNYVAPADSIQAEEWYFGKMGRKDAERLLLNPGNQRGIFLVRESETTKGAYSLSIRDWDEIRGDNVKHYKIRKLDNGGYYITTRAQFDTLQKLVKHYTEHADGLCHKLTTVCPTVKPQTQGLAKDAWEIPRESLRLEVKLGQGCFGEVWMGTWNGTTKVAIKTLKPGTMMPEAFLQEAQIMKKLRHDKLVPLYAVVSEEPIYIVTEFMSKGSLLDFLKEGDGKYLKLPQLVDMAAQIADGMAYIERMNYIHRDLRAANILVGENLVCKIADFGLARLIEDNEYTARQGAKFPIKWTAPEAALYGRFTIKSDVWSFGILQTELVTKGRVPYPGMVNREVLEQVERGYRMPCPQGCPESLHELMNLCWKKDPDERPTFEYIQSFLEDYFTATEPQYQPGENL
Sequence of Proto-oncogene tyrosine-protein kinase Src (P12931 2-536 limits assumed): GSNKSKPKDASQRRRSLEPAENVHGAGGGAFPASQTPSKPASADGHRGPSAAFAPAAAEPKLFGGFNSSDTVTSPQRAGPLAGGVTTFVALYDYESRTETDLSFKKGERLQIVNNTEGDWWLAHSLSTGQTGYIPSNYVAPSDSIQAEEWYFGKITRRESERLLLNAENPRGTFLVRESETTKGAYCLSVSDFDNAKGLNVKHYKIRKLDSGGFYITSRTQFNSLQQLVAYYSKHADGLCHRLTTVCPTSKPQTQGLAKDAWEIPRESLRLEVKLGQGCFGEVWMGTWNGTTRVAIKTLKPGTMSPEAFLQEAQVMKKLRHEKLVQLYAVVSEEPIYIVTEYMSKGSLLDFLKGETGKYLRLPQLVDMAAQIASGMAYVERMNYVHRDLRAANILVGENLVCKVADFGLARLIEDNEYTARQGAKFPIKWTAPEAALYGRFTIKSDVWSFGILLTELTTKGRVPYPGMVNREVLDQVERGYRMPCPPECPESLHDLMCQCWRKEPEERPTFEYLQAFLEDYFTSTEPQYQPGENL
Sequence of Tyrosine-protein kinase Fgr (P09769 whole entry): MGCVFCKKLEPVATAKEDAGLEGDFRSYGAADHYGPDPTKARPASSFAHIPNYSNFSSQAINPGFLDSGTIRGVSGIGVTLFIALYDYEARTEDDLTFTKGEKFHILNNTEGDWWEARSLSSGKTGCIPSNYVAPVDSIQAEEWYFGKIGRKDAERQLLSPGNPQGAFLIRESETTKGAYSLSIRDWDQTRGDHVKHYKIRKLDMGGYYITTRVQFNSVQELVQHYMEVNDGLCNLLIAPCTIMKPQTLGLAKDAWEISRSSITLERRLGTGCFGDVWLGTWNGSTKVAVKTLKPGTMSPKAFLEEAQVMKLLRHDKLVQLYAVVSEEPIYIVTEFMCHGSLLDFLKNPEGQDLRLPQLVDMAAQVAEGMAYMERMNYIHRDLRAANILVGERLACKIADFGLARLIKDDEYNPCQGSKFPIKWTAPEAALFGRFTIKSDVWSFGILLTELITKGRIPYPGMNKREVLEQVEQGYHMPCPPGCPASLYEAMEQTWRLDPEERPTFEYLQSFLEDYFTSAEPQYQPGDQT
Sequence of Receptor tyrosine-protein kinase erbB-2 (P04626 whole entry): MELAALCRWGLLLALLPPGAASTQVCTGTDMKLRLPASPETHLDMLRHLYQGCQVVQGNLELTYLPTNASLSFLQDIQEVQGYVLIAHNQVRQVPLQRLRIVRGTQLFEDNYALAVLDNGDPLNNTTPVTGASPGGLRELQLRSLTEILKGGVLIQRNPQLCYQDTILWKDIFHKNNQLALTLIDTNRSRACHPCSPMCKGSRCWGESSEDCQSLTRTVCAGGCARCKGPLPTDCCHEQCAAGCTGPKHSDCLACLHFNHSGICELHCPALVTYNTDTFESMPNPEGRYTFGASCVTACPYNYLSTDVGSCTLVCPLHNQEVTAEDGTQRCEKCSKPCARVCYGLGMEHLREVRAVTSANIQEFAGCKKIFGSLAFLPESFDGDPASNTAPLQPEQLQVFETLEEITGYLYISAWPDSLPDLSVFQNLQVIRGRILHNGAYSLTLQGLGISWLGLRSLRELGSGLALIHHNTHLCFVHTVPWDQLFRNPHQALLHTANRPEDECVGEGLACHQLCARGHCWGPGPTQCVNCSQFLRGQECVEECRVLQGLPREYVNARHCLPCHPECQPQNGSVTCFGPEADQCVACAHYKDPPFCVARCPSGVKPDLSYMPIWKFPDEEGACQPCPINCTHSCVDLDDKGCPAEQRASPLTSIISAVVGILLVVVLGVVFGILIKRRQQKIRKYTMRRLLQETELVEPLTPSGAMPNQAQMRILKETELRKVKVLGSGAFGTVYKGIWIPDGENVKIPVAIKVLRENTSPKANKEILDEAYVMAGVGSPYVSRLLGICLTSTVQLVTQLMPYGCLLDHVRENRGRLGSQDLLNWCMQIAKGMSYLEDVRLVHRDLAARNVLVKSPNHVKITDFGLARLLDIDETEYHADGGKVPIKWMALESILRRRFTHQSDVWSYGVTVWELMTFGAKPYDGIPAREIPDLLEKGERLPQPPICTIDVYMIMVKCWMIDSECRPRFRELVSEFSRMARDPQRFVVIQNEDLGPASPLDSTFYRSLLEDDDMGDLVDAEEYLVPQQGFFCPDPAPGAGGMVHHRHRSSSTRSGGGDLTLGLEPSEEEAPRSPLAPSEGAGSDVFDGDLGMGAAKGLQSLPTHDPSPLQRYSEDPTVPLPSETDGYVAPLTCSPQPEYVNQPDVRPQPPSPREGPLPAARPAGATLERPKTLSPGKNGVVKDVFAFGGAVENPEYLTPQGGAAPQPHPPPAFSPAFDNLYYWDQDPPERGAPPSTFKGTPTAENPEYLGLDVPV

SMILES | IC50 [1] [nM] | IC50 (T-cell) [nM] | also measured
Cc1cc(Nc2ncc(C(=O)Nc3c(C)cccc3Cl)s2)nc(C)n1 | 1 | 80 | IC50 [2]: < 2 nM; ED50 (Mus musculus [3]): 5 mg/kg; IC50 [4]: 0.8 nM; IC50 (PBMC): 670 nM; Vss (Rattus norvegicus): 12 L/kg; IC50 [5]: 2 nM; IC50 [6]: 4 nM; IC50 [7]: 500 nM; IC50 [8]: > 10000 nM; Ki [9]: 0.13 nM; inhibition in vivo at 60 mg/kg (Mus musculus [10]): 90%
Cc1cccc(Cl)c1NC(=O)c1cnc(NC(=O)C2CC2)s1 | – | 884 | –
Cc1cc(C)c(NC(=O)c2cnc(Nc3cnccn3)s2)c(C)c1 | 4.9 | 500 | –
Cc1nc(Nc2ncc(C(=O)Nc3c(C)cccc3Cl)s2)cc(N2CCN(CCO)CC2)n1 [DASATINIB] | – | 3 | –
Cc1cccc(Cl)c1NC(=O)c1cnc(Nc2ccncc2)s1 | 9.4 | 270 | –
Cc1cccc(Cl)c1NC(=O)c1cnc(Nc2cccnc2)s1 | 6.7 | 870 | –
Cc1cc(C)c(NC(=O)c2sc(NC(=O)OCc3ccccc3)nc2C)c(C)c1 | – | – | IC50 [9]: 33300 nM
Cc1cccc(C)c1NC(=O)c1cnc(Nc2cccnn2)s1 | 0.3 | 350 | –
Cc1nc(NCCCN2CCOCC2)cc(Nc2ncc(C(=O)Nc3c(C)cccc3Cl)s2)n1 | 0.7 | 7 | –
Cc1nc(Nc2ncc(C(=O)Nc3c(C)cccc3Cl)s2)cc(N2CCOCC2)n1 | 1.3 | 5 | –
Cc1cc(C)c(NC(=O)c2sc(NC(=O)Nc3ccccc3)nc2C)c(C)c1 | 160 | – | IC50 [9]: 90 nM
Cc1cc(C)c(NC(=O)c2sc(N)nc2C)c(C)c1 | – | > 10000 | –
Cc1ccc(NC(=O)c2sc(NC(=O)OC(C)(C)C)nc2C)c(C)c1 | – | – | IC50 [9]: 27400 nM
Cc1cccc(Cl)c1NC(=O)c1cnc(NC(=O)C2CCCC2)s1 | 1340 | – | –
Cc1cccc(Cl)c1NC(=O)c1cnc(Nc2cc(N3CCOCC3)ncn2)s1 | 0.5 | 3 | –
Cc1nc(NC(=O)OC(C)(C)C)sc1C(=O)Nc1ccccc1 | – | – | inhibition [11]: 28%
Cc1cccc(Cl)c1NC(=O)c1sc(NC(=O)c2cccs2)nc1C | 130 | – | –
Cc1cccc(Cl)c1NC(=O)c1cnc(Nc2cccc(NCCCN3CCOCC3)n2)s1 | 0.5 | 8 | –
Cc1cc(C)nc(Nc2ncc(C(=O)Nc3c(C)cccc3Cl)s2)n1 | 50 | – | –
Cc1cccc(Cl)c1NC(=O)c1cnc(Nc2cccc(NCCCn3ccnc3)n2)s1 | < 0.5 | 2 | –
Cc1cccc(Cl)c1NC(=O)c1cnc(NC(=O)c2ccsc2)s1 | 17 | > 2000 | –
Cc1nc(Nc2ncc(C(=O)Nc3c(C)cccc3Cl)s2)cc(N2CCC(CO)CC2)n1 | 0.7 | 4 | –
Cc1cccc(Cl)c1NC(=O)c1cnc(Nc2cccc(NCCO)n2)s1 | < 0.2 | 75 | –

More lines, main results first:

IC50 [1] [nM] | SMILES | IC50 (T-cell) [nM] | also measured
4 | Cc1cc(C)nc(Nc2ncc(C(=O)Nc3c(C)cccc3Cl)s2)c1 | 140 | –
0.6 | Cc1cccc(Nc2ncc(C(=O)Nc3c(C)cccc3Cl)s2)n1 | 110 | –
6.3 | Cc1cnc(Nc2ncc(C(=O)Nc3c(C)cccc3Cl)s2)c(C)n1 | 570 | –
130 | Cc1cc(C)c(NC(=O)c2sc(NC(=O)NCc3ccccc3)nc2C)c(C)c1 | – | IC50 [9]: 100 nM
480 | CC(=O)Nc1nc(C)c(C(=O)Nc2c(C)cc(C)cc2C)s1 | – | IC50 [9]: 510 nM
0.5 | Cc1ccnc(Nc2ncc(C(=O)Nc3c(C)cccc3Cl)s2)c1 | 80 | –
0.2 | Cc1nc(NCCO)cc(Nc2ncc(C(=O)Nc3c(C)cccc3Cl)s2)n1 | 23 | –
4 | Cc1cccc(Cl)c1NC(=O)c1cnc(Nc2cccnn2)s1 | 350 | –
1200 | Cc1cc(C)c(NC(=O)c2sc(NC(=O)c3ccoc3)nc2C)c(C)c1 | – | –
180 | Cc1cc(C)c(NC(=O)c2sc(NC(=O)c3ccsc3)nc2C)c(C)c1 | – | –
5 | Cc1cc(C)c(NC(=O)c2cnc(Nc3ccccn3)s2)c(C)c1 | 510 | –
12100 | Cc1cc(C)c(NC(=O)c2sc(NC(=O)C(C)(C)C)nc2C)c(C)c1 | – | –
3 | Cc1cc(C)c(NC(=O)c2cnc(Nc3cc(C)nc(C)n3)s2)c(C)c1 | 140 | –
1.2 | Cc1cccc(C)c1NC(=O)c1cnc(Nc2ccccn2)s1 | 180 | –
390 | Cc1cccc(Cl)c1NC(=O)c1sc(NC(=O)c2ccsc2)nc1C | – | –
2230 | Cc1cccc(Cl)c1NC(=O)c1cnc(NC(=O)c2cccs2)s1 | – | –
1.2 | Cc1cccc(Cl)c1NC(=O)c1cnc(Nc2ccccn2)s1 | 140 | –
1300 | Cc1cc(C)c(NC(=O)c2sc(NC(=O)NC(C)(C)C)nc2C)c(C)c1 | – | –
